From publication PMC11284788, “NN1213 – A Potent, Long-Acting, and Selective Analog of Human Amylin” (Journal of Medicinal Chemistry, 2024)
Where two headings read alike, the source gives them in different places. Numbered stars: 1 amine (or outer) side, 2 acyl side, 3 side chain; on linkers, the order of the positions; unused ones are H or OH. Bridge positions count the residues as written; N and C are the ends. Peptide text beside a SMILES is read from it. * marks the point of attachment. C20 diacid = O=C(O)CCCCCCCCCCCCCCCCCCC(=O)*; γGlu = O=C(O)[C@H](CCC(=O)[*:2])N[*:1]

Tests used:
hCTR [1] = biological target: T1, hCTR (Homo sapiens, UniProt P30988); experiment: scintillation proximity binding assay, hCTR membranes; set-up: expressed in transfected cells; host or cells: BHK tk-ts 13, transient (FuGENE 6); membranes for the SPA, whole cells for the species-specific assays
T1 sequence (P30988 25-474): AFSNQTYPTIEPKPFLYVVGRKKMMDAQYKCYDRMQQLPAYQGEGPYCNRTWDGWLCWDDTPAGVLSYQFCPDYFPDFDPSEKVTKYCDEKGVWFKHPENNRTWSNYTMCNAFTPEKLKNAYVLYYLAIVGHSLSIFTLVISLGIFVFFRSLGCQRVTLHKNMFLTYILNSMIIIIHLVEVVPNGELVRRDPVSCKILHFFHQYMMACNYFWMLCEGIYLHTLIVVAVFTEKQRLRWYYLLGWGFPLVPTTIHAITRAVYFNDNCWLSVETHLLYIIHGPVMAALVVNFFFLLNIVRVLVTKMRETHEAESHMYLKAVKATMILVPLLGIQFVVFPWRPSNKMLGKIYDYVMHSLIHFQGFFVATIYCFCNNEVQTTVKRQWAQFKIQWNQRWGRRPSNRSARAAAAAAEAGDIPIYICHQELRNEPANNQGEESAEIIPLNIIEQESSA
Method: The apparent binding affinities were determined using a scintillation proximity assay with beads from PerkinElmer and cell membranes containing the AMY3R or CTRs. […] Membranes were harvested and membranes were prepared and kept at −80 °C until use. The assay was performed in a 384-well Optiplate (PerkinElmer). Membranes were mixed with scintillation proximity assay beads in a 1:1 ratio. […] Samples were analyzed on a TopCounter (Packard). The IC50 values were calculated using GraphPad Prism. See Supporting Information S7: SAR Screening Assay Methods (Binding Assays (Human and Rat)) for more information.
Binding Assays (Human and Rat). Brief descriptions of the methods used to determine binding affinities for SAR analysis are described below. Curves and IC50 values were plotted and calculated in GraphPad Prism using nonlinear regression (one site binding competition analysis), with pIC50 values […]
values were used to calculate the binding affinity ratios in order to express the selectivity of compounds for the AMY3R versus the CTR.
CTR Binding Assay. The binding assay was performed using scintillation proximity assay (SPA) beads (RPNQ0001) from PerkinElmer and cell membranes containing either the hCTR or rCTR. BHK […]
Membranes were prepared in the following way: the cells were rinsed with PBS and incubated with Versene for approximately 5 min before harvesting. The cells were flushed with PBS and the cell-suspension was centrifuged for 5 min at 1000 rpm. Cells were homogenized (Ultra Turrax) in a buffer […]
containing 20 mM Na-HEPES and 0.1 mM EDTA (pH 7.4, buffer 2). The resulting pellet was re-suspended in buffer 2 and protein concentration was measured (BCA protein assay, Pierce). The homogenate was kept cold during the whole procedure. The membranes were stored at –80 °C until […]
The binding assay was performed in a 384-well Optiplate (PerkinElmer) in a total volume of 40 μL.
Membranes were mixed with SPA beads in a 1:1 ratio. […]
mg/well. Test compounds were dissolved in DMSO and further diluted in assay buffer (50 mM HEPES, pH 7.4, 1 mM CaCl2, 5 mM MgCl2, 0.1% ovalbumin, and 0.02% Tween-20).
Calcitonin (NEX422 PerkinElmer) was dissolved in assay buffer and added to the Optiplate at a final […]
prior to centrifugation (1500 rpm, 10 min). Samples were analyzed on TopCounter (Packard).

rat CTR = biological target: T2, rat CTR (Rattus norvegicus, UniProt P32214); experiment: cAMP FlashPlate assay, rat CTR; type: cell-based; conditions: cAMP (rat receptor assay)
T2 construct: expressed in transfected cells; host or cells: BHK tk-ts 13, transient (FuGENE 6)
T2 sequence (P32214 25-479 isoform P32214-2 limits assumed): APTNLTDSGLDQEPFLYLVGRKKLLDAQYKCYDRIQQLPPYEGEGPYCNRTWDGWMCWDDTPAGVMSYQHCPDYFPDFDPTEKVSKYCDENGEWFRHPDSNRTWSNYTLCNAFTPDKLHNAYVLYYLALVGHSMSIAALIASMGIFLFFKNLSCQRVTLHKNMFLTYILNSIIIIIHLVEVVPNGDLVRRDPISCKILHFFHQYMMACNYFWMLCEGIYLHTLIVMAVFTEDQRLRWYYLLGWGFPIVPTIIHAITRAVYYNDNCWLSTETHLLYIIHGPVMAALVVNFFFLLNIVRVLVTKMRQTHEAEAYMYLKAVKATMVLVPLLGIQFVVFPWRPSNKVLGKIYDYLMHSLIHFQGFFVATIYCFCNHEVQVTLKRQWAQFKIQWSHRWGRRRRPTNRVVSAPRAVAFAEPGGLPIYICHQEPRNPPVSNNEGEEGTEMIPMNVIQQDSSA

rat AMY3R = biological target: T3, rat AMY3R (Rattus norvegicus, UniProt P32214+Q9JJ73); experiment: cAMP FlashPlate assay, rat AMY3R; type: cell-based; conditions: for EC50: cAMP (rat receptor assay); for ratio rCTR/rAMY3R: ratio of cAMP EC50 values
T3 construct: expressed in transfected cells; host or cells: BHK tk-ts 13, transient co-transfection (FuGENE 6)
T3 sequence (P32214 25-479 isoform P32214-2 limits assumed): T2 sequence (P32214 25-479 isoform P32214-2 limits assumed)
T3 sequence (Q9JJ73 23-147 partner): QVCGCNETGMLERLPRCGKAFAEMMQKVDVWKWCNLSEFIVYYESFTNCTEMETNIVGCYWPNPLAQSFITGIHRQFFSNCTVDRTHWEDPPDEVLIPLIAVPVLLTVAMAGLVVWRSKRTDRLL

rats = experiment: Acute food intake in rats; type: in vivo, rat; conditions: single sc injection of 30 nmol/kg, relative to vehicle, mean ± SEM, n = 5–7 per group
hCTR [2] = biological target: T1, hCTR; experiment: cAMP-responsive element luciferase reporter assay, human CTR; type: cell-based; conditions: luciferase (human receptor assay)
[3] = SPA binding assay, Tables S13 and S15
[4] = Tables S12 and S14, read-out: rCTR pEC50 (converted)
[5] = transiently transfected BHK tk-ts 13 cells, FlashPlate, 30 min room temperature, 2% HSA, read-out: rCTR EC50
[6] = Tables S12 and S14, read-out: rAMY3R pEC50 (converted)
[7] = transiently transfected BHK tk-ts 13 cells, FlashPlate, 30 min room temperature, 2% HSA, read-out: rAMY3R EC50
[8] = SPA binding assay, Tables S13 and S15, read-out: hCTR pIC50 (converted)
[9] = SPA, BHK cell membranes, 125I-Calcitonin 75 pM, 120 min 25 °C, read-out: hCTR IC50
[10] = Tables S12 and S14, read-out: hCTR pEC50 (converted)
[11] = BHK cells stably expressing hCTR and CRE-luciferase, 3 h, 37 °C, 10% FBS, read-out: hCTR EC50

SMILES | hCTR pIC50 (hCTR [1]; [3]) | EC50 (rat CTR; [4]) [nM] | EC50 (rat CTR; [5]) [nM] | EC50 (rat AMY3R; [6]) [nM] | EC50 (rat AMY3R; [7]) [nM] | ratio rCTR/rAMY3R (rat AMY3R) | Acute food intake reduction 0–24 h (rats) [%] | Acute food intake reduction 24–48 h (rats) [%] | IC50 (hCTR [1]; [8]) [nM] | IC50 (hCTR [1]; [9]) [nM] | EC50 (hCTR [2]; [10]) [nM] | EC50 (hCTR [2]; [11]) [nM] | hCTR pEC50 (hCTR [2]; Tables S12 and S14)
CC[C@H](C)[C@H](NC(=O)[C@H](C)NC(=O)CNC(=O)[C@H](Cc1ccccc1)NC(=O)[C@H](CC(N)=O)NC(=O)[C@@H]1CCCN1C(=O)[C@H](CO)NC(=O)[C@H](CO)NC(=O)[C@H](Cc1c[nH]cn1)NC(=O)[C@H](CCCNC(=N)N)NC(=O)[C@H](CC(C)C)NC(=O)[C@H](Cc1ccccc1)NC(=O)[C@H](CC(N)=O)NC(=O)[C@H](C)NC(=O)[C@H](CC(C)C)NC(=O)[C@H](CCCNC(=N)N)NC(=O)[C@H](CCC(N)=O)NC(=O)[C@@H](NC(=O)[C@H](C)NC(=O)[C@@H]1CSSC[C@H](NC(=O)[C@H](CCCCN)NC(=O)COCCOCCNC(=O)COCCOCCNC(=O)CC[C@H](NC(=O)CCCCCCCCCCCCCCCCCCC(=O)O)C(=O)O)C(=O)N[C@@H](CC(N)=O)C(=O)N[C@@H]([C@@H](C)O)C(=O)N[C@@H](C)C(=O)N[C@@H]([C@@H](C)O)C(=O)N1)[C@@H](C)O)C(=O)N1CCC[C@H]1C(=O)N[C@@H](CO)C(=O)N[C@@H](CO)C(=O)N[C@H](C(=O)N[C@@H](CC(N)=O)C(=O)N[C@H](C(=O)NCC(=O)N[C@@H](CO)C(=O)N[C@@H](CC(N)=O)C(=O)N[C@H](C(=O)N[C@@H](Cc1ccc(O)cc1)C(N)=O)[C@@H](C)O)C(C)C)[C@@H](C)O [Peptide 10] | 6.99 | 141 | 142 | 1.78 | 1.79 | 79 | 22 ± 5 | 1 ± 5 | – | – | – | – | –
CC[C@H](C)[C@H](NC(=O)[C@H](C)NC(=O)CNC(=O)[C@H](Cc1ccccc1)NC(=O)[C@H](CC(N)=O)NC(=O)[C@@H]1CCCN1C(=O)[C@H](CO)NC(=O)[C@H](CO)NC(=O)[C@H](Cc1c[nH]cn1)NC(=O)[C@H](CCCNC(=N)N)NC(=O)[C@H](CC(C)C)NC(=O)[C@H](Cc1ccccc1)NC(=O)[C@H](CC(N)=O)NC(=O)[C@H](C)NC(=O)[C@H](CC(C)C)NC(=O)[C@H](CCCNC(=N)N)NC(=O)[C@H](CCC(N)=O)NC(=O)[C@@H](NC(=O)[C@H](C)NC(=O)[C@@H]1CSSC[C@H](NC(=O)[C@H](CCCCN)NC(=O)CC[C@H](NC(=O)CCCCCCCCCCCCCCCCCCC(=O)O)C(=O)O)C(=O)N[C@@H](CC(N)=O)C(=O)N[C@@H]([C@@H](C)O)C(=O)N[C@@H](C)C(=O)N[C@@H]([C@@H](C)O)C(=O)N1)[C@@H](C)O)C(=O)N1CCC[C@H]1C(=O)N[C@@H](CO)C(=O)N[C@@H](CO)C(=O)N[C@H](C(=O)N1CCC[C@H]1C(=O)N[C@H](C(=O)NCC(=O)N[C@@H](CO)C(=O)N[C@@H](CCC(=O)O)C(=O)N[C@H](C(=O)N[C@@H](Cc1ccc(O)cc1)C(N)=O)[C@@H](C)O)C(C)C)[C@@H](C)O [Peptide 11] ({C20 diacid-γGlu}-KCNTATCATQRLANFLRHSSPNFGAIPSSTPVGSETY-NH2; disulfide 2-7) | – | 16.2 | 16.2 | 1.29 | 1.29 | 13 | – | – | 12 | 11.9 | 2 | 1.99 | –
CC[C@H](C)[C@H](NC(=O)[C@H](C)NC(=O)CNC(=O)[C@H](Cc1ccccc1)NC(=O)[C@H](CC(N)=O)NC(=O)[C@@H]1CCCN1C(=O)[C@H](CO)NC(=O)[C@H](CO)NC(=O)[C@H](Cc1c[nH]cn1)NC(=O)[C@H](CCCNC(=N)N)NC(=O)[C@H](CC(C)C)NC(=O)[C@H](Cc1ccccc1)NC(=O)[C@H](CC(N)=O)NC(=O)[C@H](C)NC(=O)[C@H](CC(C)C)NC(=O)[C@H](CCCNC(=N)N)NC(=O)[C@H](CCC(N)=O)NC(=O)[C@@H](NC(=O)[C@H](C)NC(=O)[C@@H]1CSSC[C@H](NC(=O)[C@H](CCCCN)NC(=O)CC[C@H](NC(=O)CCCCCCCCCCCCCCCCCCC(=O)O)C(=O)O)C(=O)N[C@@H](CC(N)=O)C(=O)N[C@@H]([C@@H](C)O)C(=O)N[C@@H](C)C(=O)N[C@@H]([C@@H](C)O)C(=O)N1)[C@@H](C)O)C(=O)N1CCC[C@H]1C(=O)N[C@@H](CO)C(=O)N[C@@H](CO)C(=O)N[C@H](C(=O)N[C@@H](CC(N)=O)C(=O)N[C@H](C(=O)NCC(=O)N[C@@H](Cc1c[nH]cn1)C(=O)N[C@@H](CC(N)=O)C(=O)N[C@H](C(=O)N[C@@H](Cc1ccc(O)cc1)C(N)=O)[C@@H](C)O)C(C)C)[C@@H](C)O [Peptide 17] | – | 17 | 16.8 | 0.933 | 0.926 | 18 | – | – | 14.1 | 14.1 | 2.51 | 2.49 | –
CC[C@H](C)[C@H](NC(=O)[C@H](C)NC(=O)CNC(=O)[C@H](Cc1ccccc1)NC(=O)[C@H](CC(N)=O)NC(=O)[C@@H]1CCCN1C(=O)[C@H](CO)NC(=O)[C@H](CO)NC(=O)[C@H](Cc1c[nH]cn1)NC(=O)[C@H](CCCNC(=N)N)NC(=O)[C@H](CC(C)C)NC(=O)[C@H](Cc1ccccc1)NC(=O)[C@H](CC(N)=O)NC(=O)[C@H](C)NC(=O)[C@H](CC(C)C)NC(=O)[C@H](CCCNC(=N)N)NC(=O)[C@H](CCC(N)=O)NC(=O)[C@@H](NC(=O)[C@H](C)NC(=O)[C@@H]1CSSC[C@H](NC(=O)[C@H](CCCNC(=N)N)NC(=O)CNC(=O)CC[C@H](NC(=O)CCCCCCCCCCCCCCCCCCC(=O)O)C(=O)O)C(=O)N[C@@H](CC(N)=O)C(=O)N[C@@H]([C@@H](C)O)C(=O)N[C@@H](C)C(=O)N[C@@H]([C@@H](C)O)C(=O)N1)[C@@H](C)O)C(=O)N1CCC[C@H]1C(=O)N[C@@H](CO)C(=O)N[C@@H](CO)C(=O)N[C@H](C(=O)N[C@@H](CC(N)=O)C(=O)N[C@H](C(=O)NCC(=O)N[C@@H](CO)C(=O)N[C@@H](Cc1c[nH]cn1)C(=O)N[C@H](C(=O)N[C@@H](Cc1ccc(O)cc1)C(N)=O)[C@@H](C)O)C(C)C)[C@@H](C)O [Peptide 19] ({C20 diacid-γGlu}-GRCNTATCATQRLANFLRHSSPNFGAIPSSTNVGSHTY-NH2; disulfide 3-8) | 7.81 | – | – | – | – | – | – | 6 ± 7 | – | – | – | – | 8.88
